Measured values: PMC6466617 (The AAPS journal, 2019)

Biological target: T1, monocarboxylate transporter 1 (MCT1) (Mus musculus, UniProt P53986)
T1 sequence (P53986 1-493): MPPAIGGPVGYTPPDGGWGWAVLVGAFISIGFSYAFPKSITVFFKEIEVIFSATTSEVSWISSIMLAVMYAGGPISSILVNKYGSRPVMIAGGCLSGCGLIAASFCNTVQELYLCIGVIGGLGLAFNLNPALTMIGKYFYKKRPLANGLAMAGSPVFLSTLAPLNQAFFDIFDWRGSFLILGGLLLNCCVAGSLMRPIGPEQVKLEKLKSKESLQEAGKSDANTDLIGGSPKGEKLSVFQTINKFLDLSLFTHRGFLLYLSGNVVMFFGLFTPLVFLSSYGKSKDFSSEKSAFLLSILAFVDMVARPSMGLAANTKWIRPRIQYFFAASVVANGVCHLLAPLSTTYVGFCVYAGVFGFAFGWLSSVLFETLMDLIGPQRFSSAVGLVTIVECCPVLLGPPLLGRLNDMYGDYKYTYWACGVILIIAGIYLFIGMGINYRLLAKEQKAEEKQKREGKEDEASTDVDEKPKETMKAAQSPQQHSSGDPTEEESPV
Assay: inhibition of [3H]-L-lactate uptake in 4T1 cells at […], pH […], with washout
Format: cell-based
Details: 4T1, read-out: % inhibition at 200 nM

inhibition at 0.2 µM: 83.5%
SMILES: Cc1[nH]nc(C(F)(F)F)c1Cc1sc2c(c1C(=O)N1C[C@](C)(O)CO1)c(=O)n(C)c(=O)n2C(C)C [AZD3965]
